Measurements published in patent US4181657A, “2-Aminooctahydroindolo[2,3-a]quinolizines useful in treating cardiovascular disorders” (Miles Laboratories, Inc., priority 1978, dated 1980).
Counter-ions that a name gives are not always drawn.

Key:
Assay type in all cases: in vivo
[1] = tested on: ventricular arrhythmia produced by chloroform; assay: Antiarrhythmic activity: protection from chloroform-induced ventricular arrhythmia in mice (Lawson model); details: mouse; for ED50: ip, 10 min, i.p., 10 min before chloroform, 95% confidence limits in parentheses, read-out: ED50 (95% C.L.); for mice protected of 5 / Antiarrhythmic activity, ED50 symbol (failed screening dose): 31 mg/kg i.p.; for Antiarrhythmic activity, ED50 symbol (failed screening dose): groups of 5 mice
Procedure: The antiarrhythmic activity of the compounds of this invention was determined in the experimental model described by J. W. Lawson (J. Pharmacol. Exper. Therap. 160:22-31, 1968). Test compounds were administered to groups of 5 mice at an intraperitoneal dose of 31 mg/kg. Ten minutes after injection each mouse was placed in a covered 300 ml glass beaker which contained cotton saturated with chloroform. The animal was observed closely and removed from the beaker immediately after respiratory arrest. The heart was quickly exposed by making an incision through the abdomen, diaphragm, thorax and pericardium for visual inspection of ventricular rate and rhythm. Ventricular contractions were counted for 30 seconds and animals with a rate not exceeding 100 beats per 30 seconds were considered protected from the ventricular arrhythmia produced by chloroform. Compounds protecting at least 3 of the 5 mice were subsequently tested at various doses and the results obtained were used to calculate the mean effective doses (ED50) and 95% confidence limits after the method of Litchfield and Wilcoxon (J. Pharmacol. Exper. Therap. 96:99-113, 1949). Table A presents the results obtained in the antiarrhythmic study.

dog heart in situ = assay: Antianginal activity: aortic-coronary sinus difference in oxygen (myocardial oxygen consumption) in anesthetized dogs; details: 1 mg/kg i.v.; for antianginal activity (conclusion in words): based upon comparison with nitroglycerin, named compounds 'particularly'
Procedure: Angina pectoris is a clinical condition of hypoxia that results from an imbalance in myocardial oxygen supply and demand. A drug reducing oxygen demand is useful in the treatment of angina pectoris, as has been the case with nitroglycerin and the beta-adrenergic blocking agents like propranolol (J. R. Paratt, Advan. Drug Res. 9:103-134, 1974). Accordingly,the antianginal activity of 2-substituted indoloquinolizines was evaluated by assessing their capacity to reduce oxygen consumption by the dog heart in situ. This method allows measurement of the difference in oxygen content of the arterial and venous blood.
Mongrel dogs were anesthetized with pentobarbital and cannulas inserted in the trachea and in a femoral vein for artificial respiration with room air and for injection of test compounds, respectively. Heparin was administered intravenously to prevent blood clotting. The chest was opened at the sternal midline and an additional cannula introduced in the coronary sinus. Samples of blood were obtained from the coronary sinus cannula and from the thoracic aorta by direct puncture of the vessel. Partial pressure of oxygen in the samples was determined with a blood gas analyzer. Test compounds were injected intravenously at a dose of 1 mg/kg; oxygen measurements were made before administration and at 1, 5, 10, 20, 30, 40, 50 and 60 min after administration. One animal was used per test compound. As the standard of comparison, nitroglycerin was administered to a test animal and measurements were made in a similar manner.
Differences between partial pressure values in arterial and venous blood samples were calculated for each measurement. Since coronary sinus blood is representative of the venous effluent from the heart, these differences reflect the consumption of oxygen by the myocardium. Thus, the decrease in arteriovenous oxygen difference produced by the compounds by this invention indicates a reduction in myocardial oxygen consumption.

Systolic Blood Pressure = assay: Antihypertensive activity: indirect systolic blood pressure in renal hypertensive rats; details: rat, 31 mg/kg p.o., * in table = statistically significant change from control
Procedure: Rats were made hypertensive by applying a figure of eight ligature to one kidney and removing the contralateral kidney two weeks later. At least four weeks after the second operation the animals were subjected to indirect systolic blood pressure measurements with an occluding cuff and pulse sensor system applied to the tail. Pressure measurements were made before and 1,2,4,6 and 8 hours after oral administration of the test compounds at a dose of 31 mg/kg. Each compound was tested in 5 or 10 rats. Statistical significance of differences between control and post treatment values was determined by Wilcoxon's signed rank test (F. Wilcoxon and R. A. Wilcox, Some Rapid Approximate Statistical Procedures, Lederle Laboratories, Pearl River, 1964).

SMILES | ED50 [1] | mice protected of 5 [1] | Arterio-Venous Difference in Oxygen Partial Pressure at 1 min (dog heart in situ) | Arterio-Venous Difference in Oxygen Partial Pressure at 5 min (dog heart in situ) | Arterio-Venous Difference in Oxygen Partial Pressure at 10 min (dog heart in situ) | Arterio-Venous Difference in Oxygen Partial Pressure at 20 min (dog heart in situ) | Arterio-Venous Difference in Oxygen Partial Pressure at 30 min (dog heart in situ) | Arterio-Venous Difference in Oxygen Partial Pressure at 40 min (dog heart in situ) | Arterio-Venous Difference in Oxygen Partial Pressure at 50 min (dog heart in situ) | Arterio-Venous Difference in Oxygen Partial Pressure at 60 min (dog heart in situ) | antianginal activity (conclusion in words) (dog heart in situ) | Change in Systolic Blood Pressure at 1 hr (Systolic Blood Pressure) | Change in Systolic Blood Pressure at 2 hr (Systolic Blood Pressure) | Change in Systolic Blood Pressure at 4 hr (Systolic Blood Pressure) | Change in Systolic Blood Pressure at 6 hr (Systolic Blood Pressure) | Change in Systolic Blood Pressure at 8 hr (Systolic Blood Pressure) | Antiarrhythmic activity, ED50 symbol (failed screening dose) [1]
c1ccc(Cn2c3c(c4ccccc42)CCN2CCC(Nc4ccccc4)CC32)cc1 (centres unmarked) [TR2981, 2-anilino-12-benzyl-1,2,3,4,6,7,12,12b-octahydroindolo[2,3-a]quinolizine dihydrochloride] | 31 mg/kg | at least 3 of 5 mice | 17 mmHg | 20 mmHg | 21 mmHg | 22 mmHg | 23 mmHg | 24 mmHg | 24 mmHg | 24 mmHg | antianginal activity is seen | -2 mmHg | +5 mmHg | -5 mmHg | +7 mmHg | +16 mmHg | –
FC(F)(F)c1cccc(NC2CCN3CCc4c(n(Cc5ccccc5)c5ccccc45)C3C2)c1 (centres unmarked) [TR3633, 12-benzyl-1,2,3,4,6,7,12,12b-octahydroindolo-2-(3-trifluoromethylanilino)[2,3-a]quinolizine dihydrochloride] | – | – | 31 mmHg | 35 mmHg | 39 mmHg | 39 mmHg | 36 mmHg | 36 mmHg | 36 mmHg | 38 mmHg | antianginal activity is seen | -10 mmHg | +2 mmHg | +8 mmHg | +4 mmHg | +13 mmHg | * (Did not protect 3 of 5 mice and thus was not tested further.)
O=[N+]([O-])c1cccc(NC2CCN3CCc4c(n(Cc5ccccc5)c5ccccc45)C3C2)c1 (centres unmarked) [TR2998, 12-benzyl-2-(3-nitroanilino)-1,2,3,4,6,7,12,12b-octahydroindolo[2,3-a]quinolizine] | 12 mg/kg | at least 3 of 5 mice | 12 mmHg | 16 mmHg | 18 mmHg | 17 mmHg | 18 mmHg | 17 mmHg | 19 mmHg | 20 mmHg | antianginal activity is seen | 0 mmHg | -2 mmHg | -4 mmHg | 0 mmHg | -4 mmHg | –
O=[N+]([O-])OCC(CO[N+](=O)[O-])O[N+](=O)[O-] [Nitroglycerin, nitroglycerin, reference compound] | – | – | 13 mmHg | 21 mmHg | 20 mmHg | 20 mmHg | 21 mmHg | 21 mmHg | 18 mmHg | 20 mmHg | – | – | – | – | – | – | –
COc1ccc(NC2CCN3CCc4c(n(Cc5ccccc5)c5ccccc45)C3C2)cc1.Cl.Cl (centres unmarked) [TR3006, 12-benzyl-2-(4-methoxyanilino)-1,2,3,4,6,7,12,12b-octahydroindolo[2,3-a]quinolizine dihydrochloride] | – | – | 30 mmHg | 44 mmHg | 45 mmHg | 42 mmHg | 37 mmHg | 38 mmHg | 36 mmHg | 36 mmHg | antianginal activity is seen | -28 mmHg | -20 mmHg | -18 mmHg | -12 mmHg | -14 mmHg | * (Did not protect 3 of 5 mice and thus was not tested further.)
Brc1ccc(NC2CCN3CCc4c(n(Cc5ccccc5)c5ccccc45)C3C2)cc1.Cl.Cl (centres unmarked) [TR3631, 12-benzyl-2-(4-bromoanilino)-1,2,3,4,6,7,12,12b-octahydroindolo[2,3-a]quinolizine dihydrochloride] | 37 mg/kg | at least 3 of 5 mice | 26 mmHg | 33 mmHg | 32 mmHg | 30 mmHg | 30 mmHg | 32 mmHg | 31 mmHg | 31 mmHg | antianginal activity is seen | +10 mmHg | -5 mmHg | +12 mmHg | +3 mmHg | 0 mmHg | –
Cl.Cl.NC1CCN2CCc3c(n(Cc4ccccc4)c4ccccc34)C2C1.O (centres unmarked) [TR3698, 2-amino-12-benzyl-1,2,3,4,6,7,12,12b-octahydroindolo [2,3-a]-quinolizine dihydrochloride monohydrate] | 42 mg/kg | at least 3 of 5 mice | 27 mmHg | 27 mmHg | 27 mmHg | 28 mmHg | 28 mmHg | 29 mmHg | 28 mmHg | 27 mmHg | – | -4 mmHg | -11 mmHg | -3 mmHg | +14 mmHg | +3 mmHg | –
